Results: ChEMBL document CHEMBL3045349, “A comparative study on the interference of two herbicides in wheat and italian ryegrass and on their antioxidant activities and detoxification rates” (J Agric Food Chem, 2011)

How the values were obtained:
Triticum aestivum [1] = experiment: Increase in antioxidant enzyme system in Triticum aestivum (wheat) shoots assessed as increase in dehydroascorbate reductase activity compound administered at rate of 14 mf/flat measured 72 hr post treatment; type: functional
Triticum aestivum [2] = experiment: Effect on MDA content in Triticum aestivum (wheat) shoots compound administered at rate of 14 mf/flat measured 24 hr post treatment (reference value: 0.054 uM/L); type: functional
Shoot [3] = experiment: Drug level in Triticum aestivum (wheat) shoots compound administered at rate of 14 mf/flat measured 24 hr post treatment by HPLC; type: ADME
Lolium multiflorum [4] = experiment: Effect on antioxidant enzyme system in Lolium multiflorum (Italian ryegrass) shoots assessed as dehydroascorbate reductase activity per mg protein compound administered at rate of 14 mf/flat measured 48 hr post treatment (reference value: 3.6 nmol/s per mg protein); type: functional
Lolium multiflorum [5] = experiment: Effect on antioxidant enzyme system in Lolium multiflorum (Italian ryegrass) shoots assessed as catalase activity per mg protein compound administered at rate of 14 mf/flat measured 48 hr post treatment (reference value: 0.10 nmol/s per mg protein); type: functional
Triticum aestivum [6] = experiment: Effect on photosynthetic activity in Triticum aestivum (wheat) shoots assessed as leaf net photosynthesis rate measured by CO2 production compound administered at rate of 14 mf/flat measured 24 hr post treatment (reference value: 1.35 umol/m2/s); type: functional
Lolium multiflorum [7] = experiment: Effect on antioxidant enzyme system in Lolium multiflorum (Italian ryegrass) shoots assessed as catalase activity per mg protein compound administered at rate of 14 mf/flat measured 72 hr post treatment (reference value: 0.12 nmol/s per mg protein); type: functional
Shoot [8] = experiment: Drug level in Lolium multiflorum (Italian ryegrass) shoots compound administered at rate of 14 mf/flat measured 144 hr post treatment by HPLC; type: ADME
Triticum aestivum [9] = experiment: Increase in antioxidant enzyme system in Triticum aestivum (wheat) shoots assessed as increase in glutathione reductase activity compound administered at rate of 14 mf/flat measured 24 hr post treatment; type: functional
Triticum aestivum [10] = experiment: Drug level in Triticum aestivum (wheat) compound administered at rate of 14 mf/flat measured 24 hr post treatment by HPLC; type: ADME, organism-based; details: in vivo
Lolium multiflorum [11] = experiment: Drug level in Lolium multiflorum (Italian ryegrass) compound administered at rate of 14 mf/flat measured 24 hr post treatment by HPLC; type: ADME, organism-based; details: in vivo
Lolium multiflorum [12] = experiment: Effect on antioxidant enzyme system in Lolium multiflorum (Italian ryegrass) shoots assessed as ascorbate peroxidase activity per mg protein compound administered at rate of 14 mf/flat measured 48 hr post treatment (reference value: 11.3 nmol/s per mg protein); type: functional
Lolium multiflorum [13] = experiment: Effect on antioxidant enzyme system in Lolium multiflorum (Italian ryegrass) shoots assessed as ascorbate peroxidase activity per mg protein compound administered at rate of 14 mf/flat measured 24 hr post treatment (reference value: 12.5 nmol/s per mg protein); type: functional
Lolium multiflorum [14] = experiment: Effect on photosynthetic activity in Lolium multiflorum (Italian ryegrass) shoots assessed as leaf net photosynthesis rate measured by CO2 production compound administered at rate of 14 mf/flat measured 72 hr post treatment (reference value: 4.45 umol/m2/s); type: functional
Triticum aestivum [15] = experiment: Increase in antioxidant enzyme system in Triticum aestivum (wheat) shoots assessed as increase in dehydroascorbate reductase activity compound administered at rate of 14 mf/flat measured 24 hr post treatment; type: functional
Lolium multiflorum [16] = experiment: Effect on antioxidant enzyme system in Lolium multiflorum (Italian ryegrass) shoots assessed as glutathione S-transferase activity per mg protein compound administered at rate of 14 mf/flat measured 24 hr post treatment (reference value: 0.34 nmol/s per mg protein); type: functional
Lolium multiflorum [17] = experiment: Effect on photosynthetic activity in Lolium multiflorum (Italian ryegrass) shoots assessed as dark respiration rate measured by CO2 production compound administered at rate of 14 mf/flat measured 72 hr post treatment (reference value: -1.32 umol/m2/s); type: functional
Lolium multiflorum [18] = experiment: Effect on photosynthetic activity in Lolium multiflorum (Italian ryegrass) shoots assessed as dark respiration rate measured by CO2 production compound administered at rate of 14 mf/flat measured 48 hr post treatment (reference value: -1.68 umol/m2/s); type: functional
Triticum aestivum [19] = experiment: Effect on antioxidant enzyme system in Triticum aestivum (wheat) shoots assessed as glutathione reductase activity per mg protein compound administered at rate of 14 mf/flat measured 48 hr post treatment (reference value: 1.1 nmol/s per mg protein); type: functional
Triticum aestivum [20] = experiment: Effect on antioxidant enzyme system in Triticum aestivum (wheat) shoots assessed as glutathione reductase activity per mg protein compound administered at rate of 14 mf/flat measured 24 hr post treatment (reference value: 1.1 nmol/s per mg protein); type: functional
Triticum aestivum [21] = experiment: Effect on antioxidant enzyme system in Triticum aestivum (wheat) shoots assessed as dehydroascorbate reductase activity per mg protein compound administered at rate of 14 mf/flat measured 24 hr post treatment (reference value: 4.6 nmol/s per mg protein); type: functional
Lolium multiflorum [22] = experiment: Effect on antioxidant enzyme system in Lolium multiflorum (Italian ryegrass) shoots assessed as glutathione S-transferase activity per mg protein compound administered at rate of 14 mf/flat measured 48 hr post treatment (reference value: 0.37 nmol/s per mg protein); type: functional
Lolium multiflorum [23] = experiment: Effect on antioxidant enzyme system in Lolium multiflorum (Italian ryegrass) shoots assessed as ascorbate peroxidase activity per mg protein compound administered at rate of 14 mf/flat measured 48 hr post treatment (reference value: 11.6 nmol/s per mg protein); type: functional
Triticum aestivum [24] = experiment: Effect on antioxidant enzyme system in Triticum aestivum (wheat) shoots assessed as dehydroascorbate reductase activity per mg protein compound administered at rate of 14 mf/flat measured 72 hr post treatment (reference value: 4.7 nmol/s per mg protein); type: functional
Triticum aestivum [25] = experiment: Effect on antioxidant enzyme system in Triticum aestivum (wheat) shoots assessed as glutathione S-transferase activity per mg protein compound administered at rate of 14 mf/flat measured 24 hr post treatment (reference value: 2.7 nmol/s per mg protein); type: functional
Lolium multiflorum [26] = experiment: Effect on antioxidant enzyme system in Lolium multiflorum (Italian ryegrass) shoots assessed as catalase activity per mg protein compound administered at rate of 14 mf/flat measured 24 hr post treatment (reference value: 0.13 nmol/s per mg protein); type: functional
Shoot [27] = experiment: Drug level in Lolium multiflorum (Italian ryegrass) shoots compound administered at rate of 14 mf/flat measured 48 hr post treatment by HPLC; type: ADME
Triticum aestivum [28] = experiment: Effect on MDA content in Triticum aestivum (wheat) shoots compound administered at rate of 14 mf/flat measured 72 hr post treatment (reference value: 0.050 uM/L); type: functional
Triticum aestivum [29] = experiment: Effect on antioxidant enzyme system in Triticum aestivum (wheat) shoots assessed as dehydroascorbate reductase activity per mg protein compound administered at rate of 14 mf/flat measured 48 hr post treatment (reference value: 4.6 nmol/s per mg protein); type: functional
Triticum aestivum [30] = experiment: Effect on antioxidant enzyme system in Triticum aestivum (wheat) shoots assessed as catalase activity per mg protein compound administered at rate of 14 mf/flat measured 48 hr post treatment (reference value: 0.12 nmol/s per mg protein); type: functional
Triticum aestivum [31] = experiment: Effect on photosynthetic activity in Triticum aestivum (wheat) shoots assessed as leaf net photosynthesis rate measured by CO2 production compound administered at rate of 14 mf/flat measured 72 hr post treatment (reference value: 1.46 umol/m2/s); type: functional

## O=[N+]([O-])c1ccc(Oc2ccc(C(F)(F)F)cc2[N+](=O)[O-])cc1 [FLUORODIFEN]
Triticum aestivum [1]
  Activity: 45%
Triticum aestivum [2]
  Activity: 0.05 µM
Shoot [3]
  Drug uptake: 1.64 ppm
Lolium multiflorum [4]
  Activity: 4.3 nmol/s/mg protein
Lolium multiflorum [5]
  Activity: 0.11 nmol/s/mg protein
Triticum aestivum [6]
  Activity: 1.15 micromol/m2/s
Lolium multiflorum [7]
  Activity: 0.13 nmol/s/mg protein
Shoot [8]
  Drug uptake: 0.2 ppm
Triticum aestivum [9]
  Activity: 36%
Triticum aestivum [10]
  Drug uptake: 0.44 ppm
Lolium multiflorum [11]
  Drug uptake: 0.72 ppm
Lolium multiflorum [12]
  Activity: 15.3 nmol/s/mg protein
Lolium multiflorum [13]
  Activity: 13.9 nmol/s/mg protein
Lolium multiflorum [14]
  Activity: 4.05 micromol/m2/s
Triticum aestivum [15]
  Activity: 9%
Lolium multiflorum [16]
  Activity: 0.67 nmol/s/mg protein
Lolium multiflorum [17]
  Activity: -1.06 micromol/m2/s
Lolium multiflorum [18]
  Activity: -1.36 micromol/m2/s
Triticum aestivum [19]
  Activity: 1.2 nmol/s/mg protein
Triticum aestivum [20]
  Activity: 1.5 nmol/s/mg protein
Triticum aestivum [21]
  Activity: 5 nmol/s/mg protein
Lolium multiflorum [22]
  Activity: 0.5 nmol/s/mg protein
Lolium multiflorum [23]
  Activity: 14 nmol/s/mg protein
Triticum aestivum [24]
  Activity: 6.8 nmol/s/mg protein
Triticum aestivum [25]
  Activity: 2.3 nmol/s/mg protein
Lolium multiflorum [26]
  Activity: 0.11 nmol/s
Shoot [27]
  Drug uptake: 1.17 ppm
Triticum aestivum [28]
  Activity: 0.049 µM
Triticum aestivum [29]
  Activity: 5.1 nmol/s/mg protein
Triticum aestivum [30]
  Activity: 0.12 nmol/s
Triticum aestivum [31]
  Activity: 1.25 micromol/m2/s

## CCNc1nc(Cl)nc(NC(C)C)n1 [ATRAZINE]
Triticum aestivum [1]
  Activity: 21%
Triticum aestivum [2]
  Activity: 0.55 µM
Shoot [3]
  Drug uptake: 1.38 ppm
Lolium multiflorum [4]
  Activity: 3.5 nmol/s/mg protein
Lolium multiflorum [5]
  Activity: 0.1 nmol/s/mg protein
Triticum aestivum [6]
  Activity: -0.52 micromol/m2/s
Lolium multiflorum [7]
  Activity: 0.13 nmol/s/mg protein
Shoot [8]
  Drug uptake: 3.11 ppm
Triticum aestivum [9]
  Activity: 36%
Triticum aestivum [10]
  Drug uptake: 2.26 ppm
Lolium multiflorum [11]
  Drug uptake: 4.75 ppm
Lolium multiflorum [12]
  Activity: 14.2 nmol/s/mg protein
Lolium multiflorum [13]
  Activity: 15 nmol/s/mg protein
Lolium multiflorum [14]
  Activity: -1.35 micromol/m2/s
Triticum aestivum [15]
  Activity: 20%
Lolium multiflorum [16]
  Activity: 0.46 nmol/s/mg protein
Lolium multiflorum [17]
  Activity: -1.67 micromol/m2/s
Lolium multiflorum [18]
  Activity: -1.56 micromol/m2/s
Triticum aestivum [19]
  Activity: 1.1 nmol/s/mg protein
Triticum aestivum [20]
  Activity: 1.5 nmol/s/mg protein
Triticum aestivum [21]
  Activity: 5.5 nmol/s/mg protein
Lolium multiflorum [22]
  Activity: 0.46 nmol/s/mg protein
Lolium multiflorum [23]
  Activity: 12.2 nmol/s/mg protein
Triticum aestivum [24]
  Activity: 5.7 nmol/s/mg protein
Triticum aestivum [25]
  Activity: 1.7 nmol/s/mg protein
Lolium multiflorum [26]
  Activity: 0.13 nmol/s
Shoot [27]
  Drug uptake: 5.9 ppm
Triticum aestivum [28]
  Activity: 0.057 µM
Triticum aestivum [29]
  Activity: 5.3 nmol/s/mg protein
Triticum aestivum [30]
  Activity: 0.11 nmol/s
Triticum aestivum [31]
  Activity: 0 micromol/m2/s
